What all share (test): relative viability (nuclei count vs DMSO), 5 days (fraction); higher = more cells survive
Compound in the assay “MK-8033 + Tozasertib”: Cn1cc(-c2cnc3ccc4ccc(CS(=O)(=O)NCc5ccccn5)cc4c(=O)c3c2)cn1 [MK-8033] + Cc1cc(Nc2cc(N3CCN(C)CC3)nc(Sc3ccc(NC(=O)C4CC4)cc3)n2)n[nH]1 [Tozasertib] (partner 0.1 µM)
In short, it runs like this:
(§1)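 Relative viability was taken as the ratio of nuclei in treated wells to nuclei in vehicle wells. Lung cancer cell lines in 1536-well plates received compounds by pin tool one day after seeding, either one drug alone or a fixed anchor-drug dose plus five library-drug doses (not always all listed) in √10 steps. Nuclei were counted on 4× images after 5 days of treatment, and values are medians of duplicate plates.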

Compound in the assay “RU-SKI 43 + Crizotinib”: CC[C@@H](C)CNCC(=O)N1CCC2=C([C@@H]1COC3=CC=CC(=C3)C)C=CS2 [RU-SKI 43] + C[C@@H](Oc1cc(-c2cnn(C3CCNCC3)c2)cnc1N)c1c(Cl)ccc(F)c1Cl [Crizotinib] (partner 1 µM)
The gist of the method: as §1

Compound in the assay “Irinotecan + Lapatinib”: CCc1c2c(nc3ccc(OC(=O)N4CCC(N5CCCCC5)CC4)cc13)-c1cc3c(c(=O)n1C2)COC(=O)[C@]3(O)CC [Irinotecan] + CS(=O)(=O)CCNCc1ccc(-c2ccc3ncnc(Nc4ccc(OCc5cccc(F)c5)c(Cl)c4)c3c2)o1 [Lapatinib] (partner 2 µM)
In short, it runs like this:
as §1

Compound in the assay “MK-8033 + Linsitinib”: Cn1cc(-c2cnc3ccc4ccc(CS(=O)(=O)NCc5ccccn5)cc4c(=O)c3c2)cn1 [MK-8033] + C[C@]1(O)C[C@@H](c2nc(-c3ccc4ccc(-c5ccccc5)nc4c3)c3c(N)nccn32)C1 [Linsitinib] (partner 1 µM)
The gist of the method:
as §1

As to NCI-H2405, the relative viability is 0.735 with MK-8033 + Tozasertib (first compound 0.02 µM); 0.726 with MK-8033 + Tozasertib (first compound 0.06325 µM); 0.724 in the assay with MK-8033 + Tozasertib (first compound 0.2 µM); 0.734 in the assay with MK-8033 + Tozasertib (first compound 0.6325 µM); 0.789 in the assay with MK-8033 + Tozasertib (first compound 2 µM); 0.863 in the assay with RU-SKI 43 + Crizotinib (first compound 0.1 µM). For the same cell line, the relative viability was found to be 0.933 in the assay with RU-SKI 43 + Crizotinib (first compound 0.3162 µM); 0.811 in the assay with RU-SKI 43 + Crizotinib (first compound 1 µM); 0.852 with RU-SKI 43 + Crizotinib (first compound 3.162 µM); 0.807 in the assay with RU-SKI 43 + Crizotinib (first compound 10 µM); 1.05 in the assay with Irinotecan + Lapatinib (first compound 2 µM); 0.333 with Irinotecan + Lapatinib (first compound 6.325 µM). In addition, the relative viability with Irinotecan + Lapatinib (first compound 20 µM) came to 0.101; with MK-8033 + Linsitinib (first compound 0.02 µM), 0.882; in the assay with MK-8033 + Linsitinib (first compound 0.06325 µM) it was 0.91; in the assay with MK-8033 + Linsitinib (first compound 0.2 µM) it was 0.783; with MK-8033 + Linsitinib (first compound 0.6325 µM), 0.831; in the assay with MK-8033 + Linsitinib (first compound 2 µM), 0.957.

As for NCI-H3122, the relative viability with MK-8033 + Tozasertib (first compound 0.02 µM) was found to be 0.53; with MK-8033 + Tozasertib (first compound 0.06325 µM), 0.374; with MK-8033 + Tozasertib (first compound 0.2 µM), 0.383; with MK-8033 + Tozasertib (first compound 0.6325 µM), 0.369; with MK-8033 + Tozasertib (first compound 2 µM), 0.323; in the assay with RU-SKI 43 + Crizotinib (first compound 0.1 µM), 0.256. The relative viability turned out to be 0.257 with RU-SKI 43 + Crizotinib (first compound 0.3162 µM); 0.249 with RU-SKI 43 + Crizotinib (first compound 1 µM); 0.287 in the assay with RU-SKI 43 + Crizotinib (first compound 3.162 µM); 0.244 with RU-SKI 43 + Crizotinib (first compound 10 µM); 0.994 in the assay with Irinotecan + Lapatinib (first compound 0.6325 µM); 0.529 with Irinotecan + Lapatinib (first compound 2 µM). For the same cell line, the relative viability with Irinotecan + Lapatinib (first compound 6.325 µM) is 0.24; with Irinotecan + Lapatinib (first compound 20 µM) it was 0.274; with MK-8033 + Linsitinib (first compound 0.02 µM) it was 1.01; in the assay with MK-8033 + Linsitinib (first compound 0.06325 µM) it was 1.04; in the assay with MK-8033 + Linsitinib (first compound 0.2 µM), 0.993; in the assay with MK-8033 + Linsitinib (first compound 0.6325 µM), 1.04. Moreover, the relative viability in the assay with MK-8033 + Linsitinib (first compound 2 µM) was 1.02.

For the cell line PC-3 [JPC-3], the relative viability is 0.856 with MK-8033 + Tozasertib (first compound 0.02 µM); 0.825 with MK-8033 + Tozasertib (first compound 0.06325 µM); 0.806 in the assay with MK-8033 + Tozasertib (first compound 0.2 µM); 0.878 with MK-8033 + Tozasertib (first compound 0.6325 µM); 0.787 with MK-8033 + Tozasertib (first compound 2 µM); 0.918 in the assay with RU-SKI 43 + Crizotinib (first compound 0.1 µM). Also, the relative viability in the assay with RU-SKI 43 + Crizotinib (first compound 0.3162 µM) was found to be 1.14; with RU-SKI 43 + Crizotinib (first compound 1 µM) it was 0.998; with RU-SKI 43 + Crizotinib (first compound 3.162 µM), 0.922; with RU-SKI 43 + Crizotinib (first compound 10 µM), 0.963; in the assay with Irinotecan + Lapatinib (first compound 0.6325 µM), 0.3; with Irinotecan + Lapatinib (first compound 2 µM) it was 0.45. Further, the relative viability came to 0.311 with Irinotecan + Lapatinib (first compound 6.325 µM); 0.316 with Irinotecan + Lapatinib (first compound 20 µM); 0.947 with MK-8033 + Linsitinib (first compound 0.02 µM); 0.863 with MK-8033 + Linsitinib (first compound 0.2 µM); 0.961 with MK-8033 + Linsitinib (first compound 0.6325 µM); 0.987 in the assay with MK-8033 + Linsitinib (first compound 2 µM).

PC-14: the relative viability was determined as 0.607 in the assay with MK-8033 + Tozasertib (first compound 0.02 µM); 0.539 with MK-8033 + Tozasertib (first compound 0.06325 µM); 0.482 with MK-8033 + Tozasertib (first compound 0.2 µM); 0.594 with MK-8033 + Tozasertib (first compound 0.6325 µM); 0.519 with MK-8033 + Tozasertib (first compound 2 µM); 0.827 with RU-SKI 43 + Crizotinib (first compound 0.1 µM). Further, the relative viability is 0.891 in the assay with RU-SKI 43 + Crizotinib (first compound 0.3162 µM); 0.92 with RU-SKI 43 + Crizotinib (first compound 1 µM); 0.804 in the assay with RU-SKI 43 + Crizotinib (first compound 3.162 µM); 0.749 with RU-SKI 43 + Crizotinib (first compound 10 µM); 0.314 with Irinotecan + Lapatinib (first compound 0.6325 µM); 0.262 with Irinotecan + Lapatinib (first compound 2 µM). In addition, the relative viability in the assay with Irinotecan + Lapatinib (first compound 6.325 µM) was 0.15; in the assay with Irinotecan + Lapatinib (first compound 20 µM), 0.16; in the assay with MK-8033 + Linsitinib (first compound 0.02 µM), 0.978; with MK-8033 + Linsitinib (first compound 0.06325 µM), 0.843; with MK-8033 + Linsitinib (first compound 0.2 µM), 0.859; in the assay with MK-8033 + Linsitinib (first compound 0.6325 µM), 0.939. For the same cell line, in the assay with MK-8033 + Linsitinib (first compound 2 µM), the relative viability worked out at 0.858.

For the cell line RERF-LC-KJ, the relative viability with MK-8033 + Tozasertib (first compound 0.02 µM) came out at 0.493; with MK-8033 + Tozasertib (first compound 0.06325 µM) it was 0.485; with MK-8033 + Tozasertib (first compound 0.2 µM), 0.457; in the assay with MK-8033 + Tozasertib (first compound 0.6325 µM), 0.393; with MK-8033 + Tozasertib (first compound 2 µM), 0.408; with RU-SKI 43 + Crizotinib (first compound 0.1 µM), 0.904. Further, the relative viability with RU-SKI 43 + Crizotinib (first compound 0.3162 µM) is 0.86; with RU-SKI 43 + Crizotinib (first compound 1 µM), 0.772; with RU-SKI 43 + Crizotinib (first compound 3.162 µM) it was 0.862; with RU-SKI 43 + Crizotinib (first compound 10 µM) it was 0.77; with Irinotecan + Lapatinib (first compound 0.6325 µM), 0.833; with Irinotecan + Lapatinib (first compound 2 µM), 0.692. Further, the relative viability worked out at 0.439 with Irinotecan + Lapatinib (first compound 6.325 µM); 0.364 with Irinotecan + Lapatinib (first compound 20 µM); 0.885 in the assay with MK-8033 + Linsitinib (first compound 0.02 µM); 0.902 with MK-8033 + Linsitinib (first compound 0.06325 µM); 0.836 with MK-8033 + Linsitinib (first compound 0.2 µM); 0.908 in the assay with MK-8033 + Linsitinib (first compound 0.6325 µM). Further, in the assay with MK-8033 + Linsitinib (first compound 2 µM), the relative viability was 0.938.

For the cell line SK-LU-1, the relative viability in the assay with MK-8033 + Tozasertib (first compound 0.02 µM) stood at 0.328; in the assay with MK-8033 + Tozasertib (first compound 0.06325 µM) it was 0.35; with MK-8033 + Tozasertib (first compound 0.2 µM) it was 0.304; with MK-8033 + Tozasertib (first compound 0.6325 µM) it was 0.327; with MK-8033 + Tozasertib (first compound 2 µM), 0.312; with RU-SKI 43 + Crizotinib (first compound 0.1 µM), 0.799. The relative viability in the assay with RU-SKI 43 + Crizotinib (first compound 0.3162 µM) stood at 1.02; with RU-SKI 43 + Crizotinib (first compound 1 µM) it was 0.969; in the assay with RU-SKI 43 + Crizotinib (first compound 3.162 µM), 0.971; in the assay with RU-SKI 43 + Crizotinib (first compound 10 µM) it was 0.898; with Irinotecan + Lapatinib (first compound 0.6325 µM), 0.46; with Irinotecan + Lapatinib (first compound 2 µM) it was 0.503. Besides, the relative viability with Irinotecan + Lapatinib (first compound 6.325 µM) is 0.321; with Irinotecan + Lapatinib (first compound 20 µM), 0.312; with MK-8033 + Linsitinib (first compound 0.02 µM), 1.14; in the assay with MK-8033 + Linsitinib (first compound 0.06325 µM) it was 1.14; with MK-8033 + Linsitinib (first compound 0.2 µM), 0.951; with MK-8033 + Linsitinib (first compound 0.6325 µM), 1.05. In addition, in the assay with MK-8033 + Linsitinib (first compound 2 µM), the relative viability is 0.878.

For SK-MES-1, the relative viability in the assay with MK-8033 + Tozasertib (first compound 0.02 µM) came to 0.902; with MK-8033 + Tozasertib (first compound 0.06325 µM), 0.825; in the assay with MK-8033 + Tozasertib (first compound 0.2 µM), 0.872; with MK-8033 + Tozasertib (first compound 0.6325 µM) it was 0.886; with MK-8033 + Tozasertib (first compound 2 µM), 0.822; with RU-SKI 43 + Crizotinib (first compound 0.1 µM), 0.862. Moreover, the relative viability came to 1.07 in the assay with RU-SKI 43 + Crizotinib (first compound 0.3162 µM); 1.06 in the assay with RU-SKI 43 + Crizotinib (first compound 1 µM); 1.09 with RU-SKI 43 + Crizotinib (first compound 3.162 µM); 0.98 with RU-SKI 43 + Crizotinib (first compound 10 µM); 0.544 in the assay with Irinotecan + Lapatinib (first compound 0.6325 µM); 0.414 with Irinotecan + Lapatinib (first compound 2 µM). In addition, the relative viability in the assay with Irinotecan + Lapatinib (first compound 6.325 µM) is 0.25; with Irinotecan + Lapatinib (first compound 20 µM), 0.32; with MK-8033 + Linsitinib (first compound 0.02 µM) it was 1.06; in the assay with MK-8033 + Linsitinib (first compound 0.06325 µM) it was 0.995; in the assay with MK-8033 + Linsitinib (first compound 0.2 µM), 1.04; with MK-8033 + Linsitinib (first compound 0.6325 µM) it was 1.09. Moreover, the relative viability with MK-8033 + Linsitinib (first compound 2 µM) is 1.09.

Consider SW 1573, for which the relative viability in the assay with MK-8033 + Tozasertib (first compound 0.02 µM) was 0.175; with MK-8033 + Tozasertib (first compound 0.06325 µM) it was 0.214; in the assay with MK-8033 + Tozasertib (first compound 0.2 µM), 0.187; with MK-8033 + Tozasertib (first compound 0.6325 µM), 0.223; with MK-8033 + Tozasertib (first compound 2 µM), 0.232; with RU-SKI 43 + Crizotinib (first compound 0.1 µM), 1. Further, the relative viability with RU-SKI 43 + Crizotinib (first compound 0.3162 µM) amounted to 0.767; with RU-SKI 43 + Crizotinib (first compound 1 µM), 0.799; in the assay with RU-SKI 43 + Crizotinib (first compound 3.162 µM), 0.768; in the assay with RU-SKI 43 + Crizotinib (first compound 10 µM), 0.723; with Irinotecan + Lapatinib (first compound 0.6325 µM), 0.965; with Irinotecan + Lapatinib (first compound 2 µM), 1.11. Further, the relative viability in the assay with Irinotecan + Lapatinib (first compound 6.325 µM) turned out to be 0.326; with Irinotecan + Lapatinib (first compound 20 µM), 0.195; with MK-8033 + Linsitinib (first compound 0.02 µM) it was 0.799; in the assay with MK-8033 + Linsitinib (first compound 0.06325 µM), 0.721; with MK-8033 + Linsitinib (first compound 0.2 µM), 0.764; with MK-8033 + Linsitinib (first compound 0.6325 µM), 0.749. The relative viability with MK-8033 + Linsitinib (first compound 2 µM) is 0.684.

The record behind these values is the supplement of paper PMC10307832.
